# What was measured:
# [1] = tested on: peptidyl transferase reaction; conditions: polyU-guided in vitro translation system; cited from earlier work
# 23S rRNA mutation A2503G = conditions: cited from earlier work
# [2] = tested on: E. coli S30 extract translation system; type: biochemical; conditions: 5 μM, luciferase mRNA, 37°C, 30 min
# ribosome [3] = assay: Toe-printing analysis; type: biochemical
# VatB acetyltransferase = conditions: cited from earlier work
# ribosome [4] = conditions: compared with MADU on osmC mRNA; cited from earlier work
# ribosome [5] = conditions: PURExpress, osmC mRNA; 50 μM; worded as known, no reference given; cited from earlier work
smiles,measurement,setting,value
CC1=C\[C@@H](O)CC(=O)Cc2nc(co2)C(=O)N2CCC=C2C(=O)O[C@H](C(C)C)[C@H](C)/C=C/C(=O)NC\C=C\1 [virginiamycin M],Effect on peptidyl transferase reaction,[1],specifically inhibits the peptidyl transferase reaction
O=C(N[C@H](CO)[C@H](O)c1ccc([N+](=O)[O-])cc1)C(Cl)Cl [chloramphenicol],Resistance conferred by A2503G,23S rRNA mutation A2503G,confers resistance
"CC1=C\[C@@H](O)C[C@@H](O)Cc2nc(co2)C(=O)N[C@H](C)C(=O)O[C@H](C(C)C)[C@H](C)/C=C/C(=O)NC\C=C\1 [MADU, madumycin II]",Reduction of the efficiency of protein synthesis,[2],> 100 fold
same,Ribosome stalling on osmC mRNA,"ribosome [3]; PURExpress cell-free system, osmC mRNA, 0.5, 5 and 50 μM MADU",dose-dependent ribosome stalling at the start codon
same,"Progression to second codon, Gly vs Ile second codon","ribosome [3]; PURExpress, 5 µM MADU, mutated osmC mRNAs",noticeably more ribosomes progressing to the second codon in the case of glycine as compared with the isoleucine
same,Effect of VatB acetylation of C12-hydroxyl on activity,VatB acetyltransferase,renders the drug inactive
CC1=C\[C@@H](O)CC(=O)Cc2nc(co2)C(=O)N2CCC[C@@H]2C(=O)O[C@H](C(C)C)[C@H](C)/C=C/C(=O)NC\C=C\1 [pristinamycin IIB],Ribosome stalling in toe-printing,ribosome [4],ribosome stalling at the start codon
"C=C(NC(=O)C(=C)NC(=O)c1csc(C2=N[C@@H]3c4csc(n4)[C@H]4NC(=O)c5csc(n5)[C@H]([C@](C)(O)[C@@H](C)O)NC(=O)[C@H]5CSC(=N5)/C(=C/C)NC(=O)[C@H]([C@@H](C)O)NC(=O)c5csc(n5)[C@]3(CC2)NC(=O)[C@H](C)NC(=O)C(=C)NC(=O)[C@H](C)NC(=O)[C@H]([C@@H](C)CC)N[C@@H]2C=Cc3c([C@H](C)O)cc(nc3[C@H]2O)C(=O)O[C@@H]4C)n1)C(N)=O [Thiostrepton, thiostrepton]",Ribosome stalling by positive control (first codon),ribosome [5],stall ribosomes at the first codon

# — PMC5499580 (Nucleic Acids Research, 2017)
